As usually defined, the IC50 is the concentration that gives 50% inhibition. Lower therefore signals inhibition by little substance.

In one experiment the target is T1, GATA2 (Homo sapiens, UniProt P23769).
T1 construct: we tried to synthesize their full-length proteins using the cell-free system; made in house; host or cells: wheat cell-free protein synthesis system (WEPRO1240 kit)
T1 sequence (P23769 1-480): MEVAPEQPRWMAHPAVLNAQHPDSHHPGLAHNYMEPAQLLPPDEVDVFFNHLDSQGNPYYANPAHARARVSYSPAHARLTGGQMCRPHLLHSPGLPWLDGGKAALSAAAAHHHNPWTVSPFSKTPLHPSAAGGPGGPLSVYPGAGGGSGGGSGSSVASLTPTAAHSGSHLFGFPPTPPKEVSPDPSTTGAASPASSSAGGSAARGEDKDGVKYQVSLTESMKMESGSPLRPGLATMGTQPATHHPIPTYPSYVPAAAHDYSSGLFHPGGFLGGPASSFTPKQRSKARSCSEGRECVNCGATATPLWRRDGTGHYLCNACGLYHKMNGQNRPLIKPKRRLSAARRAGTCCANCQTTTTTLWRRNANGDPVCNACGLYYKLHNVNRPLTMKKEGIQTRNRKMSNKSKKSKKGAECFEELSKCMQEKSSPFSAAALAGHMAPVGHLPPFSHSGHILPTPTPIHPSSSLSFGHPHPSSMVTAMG
The experiment in a line: AlphaScreen DNA-binding assay, GATA2. The following applies: pyrrothiogatain 0 to 200 µM. On the procedure: For the protein-DNA binding assay on a 384-well AlphaPlate (Perkin Elmer), 10 μL of bait protein mixture containing 1 µL FLAG-tagged protein in AlphaScreen Buffer (100 mM Tris-HCl (pH 8.0), 150 mM NaCl, 0.1% Tween 20, and 1 mg/mL BSA) and 5 µL biotinylated oligonucleotide (0–10 µM final concentration) in AlphaScreen Buffer were dispended into the AlphaPlate. Then, the plate was incubated at 26 °C for 1 h. After incubation, 10 μL of the detection mixture containing 0.4 µg/mL Anti-DYKDDDDK antibody (1E6, Wako), 0.1 μL streptavidin-conjugated AlphaScreen donor beads, and 0.1 μL protein A-conjugated AlphaScreen acceptor beads in AlphaScreen Buffer was mixed and incubated at 26 °C for 1 h, and then, the AlphaScreen signal was detected using an EnVision device with the AlphaScreen signal detection program (PerkinElmer).
For the AlphaScreen-based chemical library screening, we used a diverse set of 9,600 synthesized chemicals established by the Drug Discovery Initiative (The University of Tokyo, Tokyo, Japan). All chemical compounds (10 mM) were dissolved in DMSO, and were pre-dispensed into a 384-well Alphaplate (250 nL/well). […] The AlphaScreen signal was detected using an EnVision device with the AlphaScreen signal detection program (PerkinElmer). […]
In general terms: In Alpha technology, singlet oxygen from a donor bead excites a nearby acceptor bead.

The test system of a further experiment is Th2 cell differentiation. The experiment in a line: Intracellular cytokine staining, naive CD4+ T cells under Th2 conditions. Format: cell-based, mouse. As to conditions: 30 and 80 µM, 5 days. As for the experimental part: (§1) C57BL/6 mice were purchased from Clea (Clea Japan, Inc., Tokyo, Japan). Total CD4^+ T cells isolated from mouse spleen were prepared using a FITC anti-mouse CD4 antibody (Cat#100510, RM4–5, BioLegend) and anti-FITC-microbeads (Cat#130-097-050, Miltenyi Biotec). Naive CD4^+ T cells (CD44^low, CD62L^high) were prepared using a MojoSort Mouse CD4 T cell Isolation Kit (Cat#480033), BioLegend). Biotinylated anti-CD44 (Cat#103004, IM7) and anti-CD25 antibodies (Cat#102004, PC61) were purchased from BioLegend. CD4^+ T cells (7.5 × 10^5) were stimulated using immobilized anti-TCR-β mAb (3 µg/mL, H57–597, BioLegend) plus an anti-CD28 mAb (1.0 µg/mL, cat#40–0281, TONBO Biosciences) for 2 days, and then, the cells were further expanded under similar conditions for an additional 3 days. IL-2 conditions: IL-2 (10 ng/mL, Pepro Tech); Th2 conditions: IL-2 (10 ng/mL, Pepro Tech), IL-4 (1 ng/mL, Pepro Tech), and anti-IFN-γ mAb (2.5 µg/mL, cat#40–731, TONBO Biosciences). […]
The in vitro differentiated CD4^+ T cells were stimulated using an immobilized anti-TCR-β mAb (3 µg/ml, H57–597, BioLegend) for 6 h in the presence of monensin (2 µM). […] Flow cytometry was performed using a Gallios Flow Cytometer instrument (Beckman Coulter) and a FACS Caliber instrument (BD Biosciences) and the results were analysed using the FlowJo software program (Tree Star, Ashland, OR, USA).

For the next experiment, the system named is Th1 cell differentiation. The experiment in a line: Th1 cell differentiation, naive CD4+ T cells under Th1 conditions. Format: cell-based, mouse. The following applies: 80 µM, five days. As for the experimental part:
as §1, with “days.” for “days. IL-2 conditions: IL-2 (10 ng/mL, Pepro Tech); Th2 conditions: IL-2 (10 ng/mL, Pepro Tech), IL-4 (1 ng/mL, Pepro Tech), and anti-IFN-γ mAb (2.5 µg/mL, cat#40–731, TONBO Biosciences).”
The in vitro differentiated CD4^+ T cells were stimulated using an immobilized anti-TCR-β mAb (3 µg/ml, H57–597, BioLegend) for 6 h in the presence of monensin (2 µM). […] Flow cytometry was performed using a Gallios Flow Cytometer instrument (Beckman Coulter) and a FACS Caliber instrument (BD Biosciences) and the results were analysed using the FlowJo software program (Tree Star, Ashland, OR, USA). […]
(B) Cytokine production induced in the pyrrothiogatain-treated Th1 cells shown in panel (A) was determined by ELISA.

“And” between values parts separate entries of the source, which are not always exact repeats. Identical values can stand only once.

With `Cc1ccc(C)n1-c1ccsc1C(=O)O` [Pyrrothiogatain, 3-(2,5-dimethyl-1H-pyrrol-1-yl)thiophene-2-carboxylic acid], the half-maximal inhibitory concentration (IC50) on GATA2 was ~50 µM and 45 µM. Moreover, the “Generation of IL-4-, IL-5-, and IL-13-producing Th2 cells” value in the experiment on Th2 cell differentiation is “repressed”. The “Generation of IFN-γ and IL-2 producing Th1 cells” value with Th1 cell differentiation is recorded as “modestly increased”.
